Assay results published in paper PMC11643494, “Structure–Activity Relationship Studies in a Series of 2-Aryloxy-N-(pyrimidin-5-yl)acetamide Inhibitors of SLACK Potassium Channels” (Molecules, 2024).

Molecular target: T1, KV2.1 (Homo sapiens, UniProt Q14721)
T1 construct: expressed in transfected cells; host or cells: HEK293
Test: Tl+-flux assay in HEK-293 cells, KV2.1
Format: cell-based
Settings: HEK293; 10 µM test compound; relative to control guangxitoxin 1E; read-out: Percent Inhibition ± SEM, KV2.1
From the text: Having executed our plan to prepare analogs across the identified regions of the chemotype (Figure 2), we identified two analogs for further profiling and evaluation. […] Desiring to add a second compound with some measure of structural differences, we also chose another submicromolar SLACK inhibitor 66 (VU0936154). Whereas 40 contains an ether linker and a halogenated phenyl group in the eastern region, […] contains an N-methyl linker and a phenyl group with a more polar cyano substituent. We first screened these analogs at 10 µM versus our in-house panel of ion channel targets using Tl^+-flux assays in HEK-293 cells expressing the human target of interest. […] Included in this set are Slo family members SLICK and two isoforms of Maxi-K, as well as several different K^+, Na^+, and Ca^2+ channels (Table 6). […] Of note was the excellent selectivity versus the broader panel of targets for both compounds, including versus the hERG channel.
Stably transfected monoclonal HEK293 cell lines expressing SLICK, Maxi-K α1/β3, Maxi-K α1/β4, CaV3.2, GIRK 1/2, KV2.1, KV7.2, NaV1.7, and TASK-1 were generated as previously described. […]
The Tl^+ flux assays were conducted as previously described, with modifications optimized for individual cell lines as described below. […] Cell plates were then loaded onto a Panoptic kinetic imaging plate reader (WaveFront Biosciences, Franklin, TN, USA). […]

T1 sequence (Q14721 whole entry): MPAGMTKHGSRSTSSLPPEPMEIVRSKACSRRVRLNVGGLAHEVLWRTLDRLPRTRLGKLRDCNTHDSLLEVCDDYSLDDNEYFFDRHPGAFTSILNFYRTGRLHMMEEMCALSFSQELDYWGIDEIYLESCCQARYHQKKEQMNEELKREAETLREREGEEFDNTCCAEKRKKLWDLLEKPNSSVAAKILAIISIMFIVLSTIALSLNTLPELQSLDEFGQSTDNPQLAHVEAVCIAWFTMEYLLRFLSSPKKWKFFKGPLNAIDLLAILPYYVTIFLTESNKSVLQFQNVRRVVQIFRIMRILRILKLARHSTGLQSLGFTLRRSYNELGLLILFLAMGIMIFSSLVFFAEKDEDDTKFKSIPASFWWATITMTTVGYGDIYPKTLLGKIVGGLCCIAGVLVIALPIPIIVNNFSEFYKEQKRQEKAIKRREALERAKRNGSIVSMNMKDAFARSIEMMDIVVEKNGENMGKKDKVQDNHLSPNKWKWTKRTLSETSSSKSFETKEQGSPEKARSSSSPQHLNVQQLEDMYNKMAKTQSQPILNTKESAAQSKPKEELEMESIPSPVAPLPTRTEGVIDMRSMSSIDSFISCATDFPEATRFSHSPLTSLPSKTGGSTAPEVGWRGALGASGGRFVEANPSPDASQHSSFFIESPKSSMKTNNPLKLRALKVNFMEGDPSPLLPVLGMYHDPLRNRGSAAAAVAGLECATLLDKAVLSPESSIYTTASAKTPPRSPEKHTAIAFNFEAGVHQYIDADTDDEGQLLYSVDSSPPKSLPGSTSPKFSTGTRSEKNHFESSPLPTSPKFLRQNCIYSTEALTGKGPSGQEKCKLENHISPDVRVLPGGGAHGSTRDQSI

Row | Compound | inhibition at 10 µM [%]
1 | CC(C)(Oc1ccc(Cl)cc1)C(=O)Nc1cnc(Oc2c(F)cccc2F)nc1 [Analog 40] | 13 ± 5
2 | CN(c1ccc(C#N)cc1)c1ncc(NC(=O)C(C)(C)Oc2ccc(Cl)cc2)cn1 [Analog 66] | 10 ± 1.6
